The source of these data is US20220281825A1 (priority 2016, published 2022).

One data set concerns LASV-p. Put plainly: organism not typed. It counts as cell-based, Lassa (LASV). The conditions noted are these: Vero, 24 h, read-out: LASV-p EC50 (nM).
The test system of another data set is MACV-p. The experiment in a line: organism not typed. It counts as cell-based, Machupo (MACV). As to conditions: Vero, 24 h, read-out: MACV-p EC50 (nM).
For the next data set, the system named is JUNV-p. Put plainly: organism not typed. It is filed as cell-based, Junin (JUNV). The conditions noted are these: Vero, 24 h, read-out: JUNV-p EC50 (nM).
The test system of another data set is TCRV-p. Put plainly: organism not typed. It counts as cell-based. The conditions noted are these: Vero, 24 h, read-out: TCRV-p EC50 (nM).
A further data set has as its system GTOV-p. Put plainly: organism not typed. It is filed as cell-based, Guanarito (GTOV). As to conditions: Vero, 24 h, read-out: GTOV-p EC50 (nM).
A further data set deals with LASV. The experiment in a line: organism not typed. It is filed as cell-based, Lassa (LASV).
The test system of a further data set is JUNV. The experiment in a line: organism not typed. It is filed as cell-based, Junin (JUNV).
For data set [1], the system named is native replicating Tacaribe (TCRV) virus. The experiment in a line: microbe, parasite or virus in culture. It is filed as cell-based.
For the next data set, the system named is LCMV. Put plainly: microbe, parasite or virus in culture. It counts as cell-based, lymphocytic choriomeningitis virus (LCMV).
The conditions of data set [2]: 1 h, pH 7.4.
The conditions of data set [3]: guinea pig, 1 h, pH 7.4.
For data set [4] the following is noted: 1 h, pH 7.4. This is another data set of the same source.
A further data set is described as follows: in vitro. As to conditions: African green monkey.
Another data set deals with VSV-p. The experiment in a line: microbe, parasite or virus in culture. As to conditions: Vesicular stomatitis virus, Vero, 24 h, read-out: VSV-p EC50 (nM). It counts as cell-based.
In the next data set the target is hERG channel (Homo sapiens, UniProt Q12809). As to conditions: pH 7.4.
Chain of hERG channel (Q12809 whole entry): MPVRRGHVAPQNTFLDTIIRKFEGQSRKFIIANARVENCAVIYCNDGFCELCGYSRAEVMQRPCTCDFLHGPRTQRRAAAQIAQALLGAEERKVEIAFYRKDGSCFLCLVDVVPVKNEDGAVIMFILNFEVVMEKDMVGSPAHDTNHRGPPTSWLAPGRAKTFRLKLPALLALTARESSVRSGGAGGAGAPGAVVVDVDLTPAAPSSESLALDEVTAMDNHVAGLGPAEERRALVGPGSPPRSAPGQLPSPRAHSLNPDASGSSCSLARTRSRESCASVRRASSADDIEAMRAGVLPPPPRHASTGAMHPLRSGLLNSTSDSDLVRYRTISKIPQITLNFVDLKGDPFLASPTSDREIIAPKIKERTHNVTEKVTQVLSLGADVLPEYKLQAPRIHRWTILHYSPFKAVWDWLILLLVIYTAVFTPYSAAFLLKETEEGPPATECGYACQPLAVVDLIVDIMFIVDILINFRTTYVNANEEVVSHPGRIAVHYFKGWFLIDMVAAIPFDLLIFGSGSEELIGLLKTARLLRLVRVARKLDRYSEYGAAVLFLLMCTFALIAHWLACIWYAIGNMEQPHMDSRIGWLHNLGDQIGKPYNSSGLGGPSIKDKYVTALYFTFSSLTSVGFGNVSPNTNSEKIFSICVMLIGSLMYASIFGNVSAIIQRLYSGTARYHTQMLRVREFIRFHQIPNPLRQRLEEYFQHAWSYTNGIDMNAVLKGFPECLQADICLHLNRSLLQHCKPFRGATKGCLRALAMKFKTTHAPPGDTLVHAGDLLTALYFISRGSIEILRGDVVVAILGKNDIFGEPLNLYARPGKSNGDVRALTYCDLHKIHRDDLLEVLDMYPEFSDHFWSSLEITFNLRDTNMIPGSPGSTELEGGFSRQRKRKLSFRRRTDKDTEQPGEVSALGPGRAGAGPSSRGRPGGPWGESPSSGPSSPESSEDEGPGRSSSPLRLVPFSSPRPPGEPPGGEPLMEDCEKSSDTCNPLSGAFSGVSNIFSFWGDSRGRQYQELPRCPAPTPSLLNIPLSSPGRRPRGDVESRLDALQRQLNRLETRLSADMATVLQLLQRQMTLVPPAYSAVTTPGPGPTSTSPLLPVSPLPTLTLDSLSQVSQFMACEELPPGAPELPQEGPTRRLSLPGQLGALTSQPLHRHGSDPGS
The conditions of data set [5]: 1 h, pH 7.4. The source holds these as a separate data set.
For data set [6] the following is noted: guinea pig, in vivo, 10 mg/kg.
The next data set can be described thus: in vivo. As to conditions: guinea pig, po, 10 mg/kg.

As to `CC(C)Oc1ccc(-n2cnc3ccc(-c4ccc5[nH]ccc5c4)cc32)cc1` [Example A24, 6-(1H-indol-5-yl)-1-[4-(propan-2-yloxy)phenyl]-1H-1,3-benzodiazole], the EC50 is 0.91 nM in the data set on LASV-p; 3.7 nM in the data set with MACV-p; 1.7 nM in the data set on JUNV-p; 15.9 nM with TCRV-p; 0.3 nM with GTOV-p; 0.06 µM in the data set with LASV (120 h, read-out: LASV EC50 uM). Also, the concentration for a half-maximal effect (EC50) in the data set with JUNV (120 h, read-out: JUNV EC50 uM) turned out to be 0.56 µM; in [1] (Mammarenavirus tacaribeense, Vero, 120 h, read-out: TCRV EC50 uM) it was 0.01 µM. For the same molecule, the “LASV SI” value with LASV is given as 527. Besides, the “JUNV SI” value with JUNV was 53. The “TCRV SI50” value in data set [1] was determined as 7100. Moreover, the “LCMV SI90” value with LCMV stood at 18. Moreover, the 90% effect concentration (EC90) in the data set on LCMV (Mammarenavirus choriomeningitidis, read-out: LCMV EC90 uM) worked out at 0.56 µM. Besides, in data set [2], the “Percent parent compound remaining at 60 minutes in liver microsomes, Human” value came to 63%. For the same molecule, in data set [3], the “Percent parent compound remaining at 60 minutes in liver microsomes, Guinea” value is recorded as 0%. Besides, in data set [4], the “Percent parent compound remaining at 60 minutes in liver microsomes, Rat” value stood at 32%. In “in vitro”, this molecule displayed a CC50 of 71300 nM.
As for `Cc1cc2ncn(-c3ccc(OC(C)C)cc3)c2cc1-c1ccc(OC(C)C)cc1` [Example A30, 5-methyl-1,6-bis[4-(propan-2-yloxy)phenyl]-1H-1,3-benzodiazole], the half-maximal effective concentration (EC50) worked out at 0.53 nM with LASV-p; 0.21 nM in the data set with MACV-p; 0.03 nM in the data set with JUNV-p; 0.07 nM with TCRV-p; 0.21 nM in the data set on GTOV-p; 5310 nM with VSV-p. Besides, the “hERG % Inhibition” value on hERG channel is given as less than 10%. This molecule also showed a CC50 in “in vitro” of 3670 nM.
Take `COc1cc2ncn(-c3ccc(OC(C)C)cc3)c2cc1-c1ccc(OC(C)C)cc1` [Example A31, 5-methoxy-1,6-bis[4-(propan-2-yloxy)phenyl]-1H-1,3-benzodiazole]: the EC50 in the data set on LASV-p worked out at 2.6 nM; in the data set with MACV-p it was 0.9 nM; in the data set on JUNV-p, 0.18 nM; in the data set with TCRV-p it was 0.7 nM. Besides, the “Percent parent compound remaining at 60 minutes in liver microsomes, Human” value in data set [2] is given as 93%. In data set [3], the “Percent parent compound remaining at 60 minutes in liver microsomes, Guinea” value stood at 100%. Also, the “Percent parent compound remaining at 60 minutes in liver microsomes, Monkey” value in [5] is listed as 40%. In addition, the “hERG % Inhibition” value at hERG channel was less than 10%. Moreover, the CC50 in “in vitro” was 3790 nM.
With `CC(C)Oc1ccc(-c2ccc3ncn(-c4ccc(OC(C)C)cc4)c3n2)cc1` [Example B2, 3,5-bis[4-(propan-2-yloxy)phenyl]-3H-imidazo[4,5-b]pyridine], on hERG channel, the “hERG % Inhibition” value is less than 10%.
Same read-out and setting: the value for `CC(C)Oc1ccc(-c2ccc3nnn(-c4ccc(OC(C)C)cc4)c3c2)cc1` [Example B12, 1,6-bis[4-(propan-2-yloxy)phenyl]-1H-1,2,3-benzotriazole] was 17%.
With `Cc1cc2nnn(-c3ccc(OC(C)C)cc3)c2cc1-c1ccc(OC(C)C)cc1` [Example B15, 5-methyl-1,6-bis[4-(propan-2-yloxy)phenyl]-1H-1,2,3-benzotriazole], the EC50 with LASV-p is 0.95 nM; in the data set on MACV-p, 0.25 nM; in the data set on JUNV-p, 0.02 nM; in the data set with TCRV-p it was 0.37 nM; in the data set on GTOV-p, 0.18 nM; in the data set on VSV-p, greater than 10000 nM. The “hERG % Inhibition” value at hERG channel is given as less than 10%. In the data set “in vitro”, the CC50 was greater than 100000 nM.
In the case of `CC(C)Oc1ccc(-c2ccc3ncc(-c4ccc(OC(C)C)cc4)n3c2)cc1` [Example C2, 3,6-bis[4-(propan-2-yloxy)phenyl]imidazo[1,2-a]pyridine], on hERG channel, the “hERG % Inhibition” value is listed as 89%. Moreover, the oral exposure result in [6] is given as “demonstrated oral exposure”. Besides, in the data set “in vivo”, the Cmax was found to be 156 ng/mL and the Tmax is 1 h.
Regarding `CC(C)Oc1ccc(-c2cnc3ccc(-c4ccc(C5(O)CCC5)cc4)cn23)cc1` [Example C9, 1-(4-{3-[4-(propan-2-yloxy)phenyl]imidazo[1,2-a]pyridin-6-yl}phenyl)cyclobutan-1-ol], the EC50 amounted to 1.15 nM in the data set with LASV-p; 0.71 nM in the data set on MACV-p; 0.45 nM in the data set on JUNV-p; 1.7 nM in the data set on TCRV-p; 0.27 nM in the data set on GTOV-p; 5810 nM with VSV-p. In addition, in the data set “in vitro”, the CC50 is 3970 nM.
`CC(C)Oc1ccc(-c2cnc3ccc(-c4ccc5cc[nH]c5c4)cn23)cc1` [Example C11, 6-{3-[4-(propan-2-yloxy)phenyl]imidazo[1,2-a]pyridin-6-yl}-1H-indole]: the EC50 in the data set with LASV-p was found to be 2.83 nM; with MACV-p, 10 nM; in the data set with JUNV-p it was 3.21 nM; in the data set with TCRV-p, 18.4 nM; with GTOV-p, 0.86 nM; in the data set with VSV-p, 3090 nM. The molecule further displayed a CC50 in “in vitro” of 25200 nM.
On to `CC(C)Oc1ccc(-c2cnc3ccc(-c4ccc(OC(C)C)c(F)c4)cn23)cc1` [Example C24, 6-[3-fluoro-4-(propan-2-yloxy)phenyl]-3-[4-(propan-2-yloxy)phenyl]imidazo[1,2-a]pyridine], for which the EC50 in the data set on LASV-p was found to be 4.58 nM; in the data set on MACV-p, 0.875 nM; with JUNV-p, 0.416 nM; with TCRV-p it was 3.91 nM; with GTOV-p it was 0.15 nM; in the data set on VSV-p, 9810 nM. In “in vitro”, the CC50 amounted to 4180 nM.
As to `CC(C)Oc1ccc(-c2cnc3ccc(-c4ccc(C5(O)CC5)cc4)cn23)cc1` [Example C27, 1-(4-{3-[4-(propan-2-yloxy)phenyl]imidazo[1,2-a]pyridin-6-yl}phenyl)cyclopropan-1-ol], the concentration for a half-maximal effect (EC50) is 0.66 nM in the data set with LASV-p; 0.68 nM with MACV-p; 0.51 nM in the data set on JUNV-p; 0.58 nM in the data set on TCRV-p; 0.24 nM in the data set on GTOV-p; greater than 10000 nM with VSV-p. Moreover, the CC50 in the data set “in vitro” worked out at 5280 nM.
Take `CC(C)Oc1ccc(-c2ccc3ncc(-c4ccc(C5CC5)cc4)n3c2)cc1` [Example C30, 3-(4-cyclopropylphenyl)-6-[4-(propan-2-yloxy)phenyl]imidazo[1,2-a]pyridine]: the concentration for a half-maximal effect (EC50) worked out at 1.02 nM in the data set on LASV-p; 1.08 nM in the data set on MACV-p; 0.82 nM in the data set with JUNV-p; 3.83 nM with TCRV-p; 0.05 nM in the data set with GTOV-p; 6960 nM in the data set with VSV-p. The molecule further returned a CC50 in “in vitro” of 3980 nM.
On to `CC(C)Oc1ccc(-c2ccc3ncc(-c4ccc(OCC5CC5)cc4)n3c2)cc1` [Example C33, 3-[4-(cyclopropylmethoxy)phenyl]-6-[4-(propan-2-yloxy)phenyl]imidazo[1,2a]pyridine], for which the EC50 in the data set with LASV-p was determined as 1.3 nM; in the data set on MACV-p it was 5.31 nM; in the data set on JUNV-p, 2.3 nM; in the data set on TCRV-p, 6.57 nM; in the data set with GTOV-p, 0.91 nM; in the data set on VSV-p, 4770 nM. Moreover, the CC50 in “in vitro” worked out at 4770 nM.
As to `CC(C)Oc1ccc(-c2ccc3ncc(-c4ccc(OC(F)F)cc4)n3c2)cc1` [Example C40, 3-[4-(difluoromethoxy)phenyl]-6-[4-(propan-2-yloxy)phenyl]imidazo[1,2a]pyridine], the half-maximal effective concentration (EC50) with LASV-p came to 3.83 nM; with MACV-p, 5.85 nM; with JUNV-p, 0.97 nM; in the data set on TCRV-p, 22.6 nM; in the data set on GTOV-p, 1.35 nM; with VSV-p, 6170 nM. This molecule yielded a CC50 in “in vitro” of 4110 nM.
Turning to `c1cc(-c2ccc3ncc(-c4ccc(OC5CC5)cc4)n3c2)ccc1OC1CC1` [Example C46, 3,6-bis(4-cyclopropoxyphenyl)imidazo[1,2-a]pyridine], the EC50 in the data set with LASV-p came out at 7.23 nM; with MACV-p, 8.47 nM; with JUNV-p it was 4.42 nM; with TCRV-p, 22.5 nM; with GTOV-p it was 1.26 nM; in the data set on VSV-p, 4550 nM. Further, in the data set “in vitro”, the CC50 is 4610 nM.
Regarding `OC1(c2ccc(-c3ccc4ncc(-c5ccc(C6(O)CCC6)cc5)n4c3)cc2)CCC1` [Example C47, 1-(4-{3-[4-(1-hydroxycyclobutyl)phenyl]imidazo[1,2-a]pyridin-6-yl}phenyl)cyclobutan-1-ol], the half-maximal effective concentration (EC50) in the data set on LASV-p was found to be 1.8 nM; with MACV-p it was 0.5 nM; in the data set on JUNV-p, 0.55 nM; in the data set with TCRV-p it was 1.17 nM; with GTOV-p, 0.44 nM; with VSV-p, 4340 nM. In addition, the CC50 in the data set “in vitro” amounted to 7860 nM.
